Experimental data from the supplement of paper PMC8671470.

test system: NOMO-1; assay: cell viability (% survival relative to DMSO control, bortezomib = 0%); higher = less cytotoxic; settings: 10 nM; 72 h
Procedure, shortened: (§1)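 Percent survival figures are means of duplicate wells. They were obtained by CellTiter-Glo luminescence after 10 AML and 5 CML cell lines spent 72 h at 37 °C with 5% CO2 in 384-well plates with compounds at 1, 10, 100, 1000 or 10000 nM. Vehicle was set to 100% and a 10 µM positive control to 0%.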

| SMILES | cell viability [%] |
| --- | --- |
| CCC(CC#N)OC(=O)N[C@@H](C)c1cccc(NC(=O)Nc2ccc(-c3cnco3)c(OC)c2)c1 (stereo in doubt) [AVN-944] | 101 |
| OC[C@H]1OC(O)C[C@@H](O)[C@@H]1O (stereo not given in full) [2-deoxyglucose] | 100 |
| O=C(C(=O)c1ccc(Br)cc1)c1ccc(Br)cc1 [4,4'-Dibromobenzil] | 110 |
| NS(=O)(=O)c1ccc(NC(=O)Cc2ccccc2)cc1 [4-(2-Phenylacetamido)Benzenesulfonamide] | 102 |
| NCc1ccc(S(N)(=O)=O)cc1 [4-Homosulfanilamide] | 96.1 |
| Oc1ncc(F)c(O)n1 [5-fluorouracil] | 105 |
| NCc1ccc(-c2cccnc2)s1 [(5-Pyrid-3-YLTHIEN-2-YL)METHYLAMINE] | 105 |
| CC(=O)N[C@@H](CS)C(=O)O [Acetylcysteine] | 99 |
| CCCCC/C=C\C/C=C\C/C=C\C/C=C\CCCC(=O)C(F)(F)F [Arachidonyl trifluoromethyl ketone] | 98.7 |
| O=[As]O[As]=O (stereo not given) [Arsenic trioxide] | 96 |

same assay, conditions: 100 nM; 72 h

| SMILES | cell viability [%] |
| --- | --- |
| CC(=O)N1CCN(c2ccc(OC[C@@H]3CO[C@@](Cn4ccnc4)(c4ccc(Cl)cc4Cl)O3)cc2)CC1 (racemic) [Ketoconazole] | 100 |
| CCC(CC#N)OC(=O)N[C@@H](C)c1cccc(NC(=O)Nc2ccc(-c3cnco3)c(OC)c2)c1 (stereo in doubt) [AVN-944] | 86.5 |
| OC[C@H]1OC(O)C[C@@H](O)[C@@H]1O (stereo not given in full) [2-deoxyglucose] | 107 |
| O=C(C(=O)c1ccc(Br)cc1)c1ccc(Br)cc1 [4,4'-Dibromobenzil] | 99.8 |
| NS(=O)(=O)c1ccc(NC(=O)Cc2ccccc2)cc1 [4-(2-Phenylacetamido)Benzenesulfonamide] | 108 |
| NCc1ccc(S(N)(=O)=O)cc1 [4-Homosulfanilamide] | 98.3 |
| Oc1ncc(F)c(O)n1 [5-fluorouracil] | 95.1 |
| NCc1ccc(-c2cccnc2)s1 [(5-Pyrid-3-YLTHIEN-2-YL)METHYLAMINE] | 97.5 |
| CC(=O)N[C@@H](CS)C(=O)O [Acetylcysteine] | 98.8 |
| CCCCC/C=C\C/C=C\C/C=C\C/C=C\CCCC(=O)C(F)(F)F [Arachidonyl trifluoromethyl ketone] | 92.1 |
| O=[As]O[As]=O (stereo not given) [Arsenic trioxide] | 110 |

same assay, conditions: 1000 nM; 72 h

| SMILES | cell viability [%] |
| --- | --- |
| CC(=O)N1CCN(c2ccc(OC[C@@H]3CO[C@@](Cn4ccnc4)(c4ccc(Cl)cc4Cl)O3)cc2)CC1 (racemic) [Ketoconazole] | 99.8 |
| CCC(CC#N)OC(=O)N[C@@H](C)c1cccc(NC(=O)Nc2ccc(-c3cnco3)c(OC)c2)c1 (stereo in doubt) [AVN-944] | 34 |
| OC[C@H]1OC(O)C[C@@H](O)[C@@H]1O (stereo not given in full) [2-deoxyglucose] | 87.9 |
| O=C(C(=O)c1ccc(Br)cc1)c1ccc(Br)cc1 [4,4'-Dibromobenzil] | 104 |
| NS(=O)(=O)c1ccc(NC(=O)Cc2ccccc2)cc1 [4-(2-Phenylacetamido)Benzenesulfonamide] | 109 |
| NCc1ccc(S(N)(=O)=O)cc1 [4-Homosulfanilamide] | 99.8 |
| Oc1ncc(F)c(O)n1 [5-fluorouracil] | 68.5 |
| NCc1ccc(-c2cccnc2)s1 [(5-Pyrid-3-YLTHIEN-2-YL)METHYLAMINE] | 109 |
| CC(=O)N[C@@H](CS)C(=O)O [Acetylcysteine] | 93.5 |
| CCCCC/C=C\C/C=C\C/C=C\C/C=C\CCCC(=O)C(F)(F)F [Arachidonyl trifluoromethyl ketone] | 84.5 |
| O=[As]O[As]=O (stereo not given) [Arsenic trioxide] | 100 |

same assay, conditions: 10000 nM; 72 h

| SMILES | cell viability [%] |
| --- | --- |
| CC(=O)N1CCN(c2ccc(OC[C@@H]3CO[C@@](Cn4ccnc4)(c4ccc(Cl)cc4Cl)O3)cc2)CC1 (racemic) [Ketoconazole] | 99.5 |
| CCC(CC#N)OC(=O)N[C@@H](C)c1cccc(NC(=O)Nc2ccc(-c3cnco3)c(OC)c2)c1 (stereo in doubt) [AVN-944] | 10.4 |
| OC[C@H]1OC(O)C[C@@H](O)[C@@H]1O (stereo not given in full) [2-deoxyglucose] | 93.6 |
| O=C(C(=O)c1ccc(Br)cc1)c1ccc(Br)cc1 [4,4'-Dibromobenzil] | 96.2 |
| NS(=O)(=O)c1ccc(NC(=O)Cc2ccccc2)cc1 [4-(2-Phenylacetamido)Benzenesulfonamide] | 107 |
| NCc1ccc(S(N)(=O)=O)cc1 [4-Homosulfanilamide] | 100 |
| Oc1ncc(F)c(O)n1 [5-fluorouracil] | 61.9 |
| NCc1ccc(-c2cccnc2)s1 [(5-Pyrid-3-YLTHIEN-2-YL)METHYLAMINE] | 87.9 |
| CC(=O)N[C@@H](CS)C(=O)O [Acetylcysteine] | 103 |
| CCCCC/C=C\C/C=C\C/C=C\C/C=C\CCCC(=O)C(F)(F)F [Arachidonyl trifluoromethyl ketone] | 79.9 |
| O=[As]O[As]=O (stereo not given) [Arsenic trioxide] | 71.4 |

test system: KG-1; assay: as above; settings: 1 nM; 72 h
Procedure, shortened: as §1

| SMILES | cell viability [%] |
| --- | --- |
| CC(=O)N1CCN(c2ccc(OC[C@@H]3CO[C@@](Cn4ccnc4)(c4ccc(Cl)cc4Cl)O3)cc2)CC1 (racemic) [Ketoconazole] | 97.5 |
| CCC(CC#N)OC(=O)N[C@@H](C)c1cccc(NC(=O)Nc2ccc(-c3cnco3)c(OC)c2)c1 (stereo in doubt) [AVN-944] | 108 |
| OC[C@H]1OC(O)C[C@@H](O)[C@@H]1O (stereo not given in full) [2-deoxyglucose] | 111 |
| O=C(C(=O)c1ccc(Br)cc1)c1ccc(Br)cc1 [4,4'-Dibromobenzil] | 95.5 |
| NS(=O)(=O)c1ccc(NC(=O)Cc2ccccc2)cc1 [4-(2-Phenylacetamido)Benzenesulfonamide] | 99 |
| NCc1ccc(S(N)(=O)=O)cc1 [4-Homosulfanilamide] | 91.4 |
| Oc1ncc(F)c(O)n1 [5-fluorouracil] | 101 |
| NCc1ccc(-c2cccnc2)s1 [(5-Pyrid-3-YLTHIEN-2-YL)METHYLAMINE] | 109 |
| CC(=O)N[C@@H](CS)C(=O)O [Acetylcysteine] | 113 |
| CCCCC/C=C\C/C=C\C/C=C\C/C=C\CCCC(=O)C(F)(F)F [Arachidonyl trifluoromethyl ketone] | 90.8 |
| O=[As]O[As]=O (stereo not given) [Arsenic trioxide] | 103 |

same assay, conditions: 10 nM; 72 h

| SMILES | cell viability [%] |
| --- | --- |
| CC(=O)N1CCN(c2ccc(OC[C@@H]3CO[C@@](Cn4ccnc4)(c4ccc(Cl)cc4Cl)O3)cc2)CC1 (racemic) [Ketoconazole] | 105 |
| CCC(CC#N)OC(=O)N[C@@H](C)c1cccc(NC(=O)Nc2ccc(-c3cnco3)c(OC)c2)c1 (stereo in doubt) [AVN-944] | 99.4 |
| OC[C@H]1OC(O)C[C@@H](O)[C@@H]1O (stereo not given in full) [2-deoxyglucose] | 95.2 |
| O=C(C(=O)c1ccc(Br)cc1)c1ccc(Br)cc1 [4,4'-Dibromobenzil] | 98.6 |
| NS(=O)(=O)c1ccc(NC(=O)Cc2ccccc2)cc1 [4-(2-Phenylacetamido)Benzenesulfonamide] | 106 |
| NCc1ccc(S(N)(=O)=O)cc1 [4-Homosulfanilamide] | 96 |
| Oc1ncc(F)c(O)n1 [5-fluorouracil] | 114 |
| NCc1ccc(-c2cccnc2)s1 [(5-Pyrid-3-YLTHIEN-2-YL)METHYLAMINE] | 108 |
| CC(=O)N[C@@H](CS)C(=O)O [Acetylcysteine] | 98.3 |
| CCCCC/C=C\C/C=C\C/C=C\C/C=C\CCCC(=O)C(F)(F)F [Arachidonyl trifluoromethyl ketone] | 102 |
| O=[As]O[As]=O (stereo not given) [Arsenic trioxide] | 106 |
